Results taken from article PMC12035805, “A Water-Soluble Aggregation-Induced Emission Photosensitizer with Intrinsic Antibacterial Activity as an Antiplanktonic and Antibiofilm Therapeutic Agent” (Journal of Medicinal Chemistry, 2025).
Converted amounts (≈) assume the structure as drawn. Where two headings read alike, the source gives them in different places.

Legend:
[1] = test system: S. aureus; experiment: Resistance development assay on S. aureus; assay type: cell-based, Staphylococcus aureus
Experimental: The MICs for TPA-1 and norfloxacin against S. aureus were first determined by the above-mentioned method. The wells with 0.5 × MIC of compounds were transferred to 1 mL fresh MHB and incubated under darkness for 3–4 h at 37 °C. The bacteria were then used to conduct a MIC assay again. The experiments were repeated for 20 days. The fold changes in the MIC values of the compounds were recorded. The experiments were performed in duplicate.

[2] = test system: S. aureus (ATCC 29213); experiment: MIC assay (broth microdilution, CLSI), without light; assay type: cell-based; conditions: Staphylococcus aureus, ATCC29213, light or radiation study, read-out: MIC against S. aureus (ATCC 29213)
Experimental: (§1) The MIC assays of TPA-1 were conducted according to the broth microdilution methods described in the Clinical and Laboratory Standards Institute (CLSI) standard. A single colony of S. aureus (ATCC 29213), methicillin-resistant S. aureus (BAA 41), or P. aeruginosa (ATCC 27853) on an LB agar plate was picked and suspended in Mueller–Hinton Broth (MHB). The bacterial culture was grown overnight at 37 °C. The next day, the bacteria culture was diluted 100 times in fresh MHB and grown to the mid log phase. Bacteria in the mid log phase were further diluted to 5 × 10^6 CFU/mL in cation-adjusted MHB (S. aureus) or MHB (P. aeruginosa). Ten μL of the diluted bacteria were added to a 96-well plate containing 90 μL of serial diluted TPA-1 in the corresponding medium. The plate was incubated overnight at 37 °C. The MICs of the TPA compounds were the concentrations at which no apparent bacteria were observed by the naked eye. Different concentrations of LTA were also added to examine the change in MIC values of TPA-1 against S. aureus. The experiments were conducted in triplicate.

[3] = test system: P. aeruginosa (ATCC 27853); experiment: as above; assay type: cell-based; conditions: Pseudomonas aeruginosa, ATCC27853, light or radiation study; without light irradiation; read-out: MIC against P. aeruginosa (ATCC 27853)
Experimental: as §1

[4] = test system: human erythrocytes; experiment: Hemolysis of human erythrocytes; assay type: cell-based
Experimental: (§2) The human erythrocyte concentrate was prepared according to the kit manual from the Biomaterial Hemolytic Assay Kit (Hemoscan). After the human erythrocytes had been washed and diluted with manufacture buffer, 100 μL of erythrocytes (10%) were added into 100 μL of various concentrations of compounds in PBS. 1% of Triton X (1%) was the positive control, while PBS was the negative control. The erythrocytes were then gently mixed with the TPA compounds and further incubated for an hour at 37 °C. After that, the erythrocytes were centrifuged (1000 rpm, 5 min), and 20 μL of supernatant was added to 180 μL of PBS in a 96-well plate. The optical density at 380, 415, and 450 nm was measured by a plate reader. The final OD value of the compounds was calculated as (2 × OD415) – (OD450 + OD380) where OD380, OD415, and OD450 are the optical density of the solution at 380, 415, and 450 nm, respectively. The hemolysis rates of the compounds were calculated as (ODcompound – ODPBS)/(ODTritonX – ODPBS) × 100% where ODcompound, ODPBS, and ODTritonX are the final OD values of the erythrocytes mixed with TPA compounds, PBS, and 1% Triton X, respectively. The experiment was performed in triplicate.

[5] = Hemolysis of human erythrocytes; assay type: cell-based; conditions: 200 μM compound, 1 h, 37 °C
Experimental: as §2

[6] = Cytotoxicity (MTT) assay against HFF-1 cells; assay type: cell-based; conditions: human, no irradiation, read-out: 50% cytotoxicity concentration (CC50) against HFF-1 cells
Experimental: The cytotoxicity of TPA-1, TPA-0, and TPA-NC-1 against HFF-1 cells was evaluated using the 3-(4,5-dimethylthiazol-2-yl)-2,5-diphenyltetrazolium bromide (MTT) assay kit from ThermoFisher Scientific. In general, HFF-1 cells (MEM, 10% FBS, and 1% penicillin-streptomycin) were seeded in a 96-well plate with a density of 3000 cells/well overnight at 37 °C with 5% CO2. Then, the cells were treated with different concentrations of compounds for 24 h. MTT (10 μL, 5 mg/mL) was added to the medium, and the cells were further incubated for 3 h. The medium was then replaced by DMSO (100 μL). After gently shaking the plate for 30 s, the optical density of the solutions at 570 nm was measured by a BMG Labtech CLARIOstar microplate reader. The cell viability was calculated as (ODcompound – ODDMSO)/(ODmedium - ODDMSO) × 100% where ODcompound, ODmedium, and ODDMSO are the optical densities of the treated cell, nontreated cells, and DMSO at 570 nm, respectively. The experiment was conducted in triplicate. The CC50 values were calculated using GraphPad Prism 8.

[7] = Log P, 1-octanol/water partition; assay type: physicochemical; conditions: 1-octanol/water (1:1)
Experimental: The log P values of TPA compounds were obtained according to previously reported methods.[66] 1-octanol was first presaturated with water. Equal volume and concentration of TPA-NC-1, TPA-0, and TPA-1 were added to a 1-octanol/water (1:1) mixture and vortexed for 1 min. The mixture was then centrifuged for 5 min at 13,500 rpm. After that, the absorptions of the compound in the 1-octanol and water phases were measured. The concentrations of the compound in both phases were calculated by using the absorption calibration curve of the corresponding compound. Log P = log (concentration of the compound in 1-octanol/concentration of the compound in water).

[8] = test system: methicillin-resistant S. aureus (BAA 41); experiment: MIC assay (broth microdilution, CLSI), without light; assay type: cell-based; conditions: Staphylococcus aureus, BAA41, light or radiation study, read-out: MIC against methicillin-resistant S. aureus (BAA 41)
Experimental: as §1

SMILES | logP [7] | HC50 [4] | hemolysis at 1 h, 200 µM [5] | CC50 at 24 h [6] | further results
CCn1cc(C(=O)O)c(=O)c2cc(F)c(N3CCNCC3)cc21 [norfloxacin, reference compound] |  |  |  |  | increase of MIC against S. aureus after treatment for 20 days ([1]; 20 days of passages at 0.5 × MIC): 1024 fold; MIC ([1]; Staphylococcus aureus, read-out: initial MIC against S. aureus in resistance development assay): 0.5 µM (≈ 0.16 µg/mL)
C[C@@H](O)[C@H]1C(=O)N2C(C(=O)O)=C(S[C@@H]3CN[C@H](C(=O)N(C)C)C3)[C@H](C)[C@H]12 [Meropenem, reference compound] |  |  |  |  | MIC ([2]; without light irradiation): 0.312 µM (≈ 0.12 µg/mL); MIC [3]: 2.5 µM (≈ 0.959 µg/mL)
CN[C@H](CC(C)C)C(=O)N[C@H]1C(=O)N[C@@H](CC(N)=O)C(=O)N[C@H]2C(=O)N[C@H]3C(=O)N[C@H](C(=O)N[C@H](C(=O)O)c4cc(O)cc(O)c4-c4cc3ccc4O)[C@H](O)c3ccc(c(Cl)c3)Oc3cc2cc(c3O[C@@H]2O[C@H](CO)[C@@H](O)[C@H](O)[C@H]2O[C@H]2C[C@](C)(N)[C@H](O)[C@H](C)O2)Oc2ccc(cc2Cl)[C@H]1O [Vancomycin, reference compound] |  |  |  |  | MIC [8]: 0.625 µM (≈ 0.906 µg/mL); MIC [2]: 0.625 µM (≈ 0.906 µg/mL)

The next lines start with results.

logP [7] | SMILES | HC50 [4] | hemolysis at 1 h, 200 µM [5] | CC50 at 24 h [6] | further results
-1.7 | CC[n+]1c(/C=C/c2ccc(-c3ccc(N(c4ccc(OCCC[N+](C)(C)C)cc4)c4ccc(OCCC[N+](C)(C)C)cc4)cc3)s2)sc2ccccc21.[Br-].[Br-].[Br-] [TPA-0] | > 200 µM | < 3% | 120 ± 20 µM | 
1.1 | CC[n+]1c(/C=C/c2ccc(-c3ccc(N(c4ccc(OC)cc4)c4ccc(OC)cc4)cc3)s2)sc2ccccc21.[Br-] [TPA-NC-1, reference compound] | < 200 µM | > 60% | 7.8 ± 0.7 µM | 
